Measured values as given in DBAASP.
Converted amounts (≈) assume the structure as drawn. Blank lines part the entries; values can stand above or below the compound they belong to.

How the values were obtained:
Experiment in all cases: ≥ marks a high value that may be exact or a test limit, other limits are often not marked, values filed in µg/mL are converted to µM
[1] = test system: Streptococcus pyogenes ATCC 19615
[2] = test system: Lacinutrix algicola AKS293T
[3] = test system: Listeria monocytogenes ATCC 15313
[4] = test system: Enterococcus faecalis ATCC 29212
[5] = test system: Shigella sonnei ATCC 29930
[6] = test system: Psychrobacter sp. PAMC 21119
[7] = test system: Escherichia coli DH5alpha
[8] = test system: Burkholderia cepacia ATCC 25416
[9] = test system: Candida glabrata ATCC 2001
[10] = test system: Enterobacter cloacae ATCC 13047
[11] = test system: Pseudomonas aeruginosa ATCC 15442
[12] = test system: Flavobacterium sp. PAMC 22217
[13] = test system: Candida tropicalis ATCC 20115
[14] = test system: Staphylococcus aureus ATCC 33591
[15] = test system: Pseudomonas aeruginosa ATCC 27853
Enterococcus faecalis = test system: Enterococcus faecalis
[16] = test system: Candida albicans LABMIC 0107
[17] = test system: Candida parapsilosis ATCC 22019
[18] = test system: Escherichia coli KpC+001812446
[19] = test system: Papiliotrema laurentii LABMIC 0404
Pseudomonas aeruginosa = test system: Pseudomonas aeruginosa
[20] = test system: Klebsiella pneumoniae KpC+001825971
[21] = test system: Candida parapsilosis LABMIC 0113
[22] = test system: Staphylococcus aureus ATCC 29213
[23] = test system: Candida tropicalis LABMIC 0112
[24] = test system: Staphylococcus aureus ATCC 25923
Candida krusei ATCC 6258 = test system: Candida krusei ATCC 6258
Escherichia coli = test system: Escherichia coli
Streptococcus pyogenes = test system: Streptococcus pyogenes
Klebsiella pneumoniae = test system: Klebsiella pneumoniae
Staphylococcus aureus = test system: Staphylococcus aureus
[25] = test system: Trichophyton rubrum LABMIC 0203
Acinetobacter baumannii = test system: Acinetobacter baumannii
[26] = test system: Klebsiella pneumoniae ATCC 13883
[27] = test system: Microsporum canis LABMIC 0401
[28] = test system: Candida tropicalis LABMIC 0109
[29] = test system: Bacillus subtilis ATCC 19659
[30] = test system: Candida albicans ATCC 90028
[31] = test system: Cryptococcus neoformans ATCC 90012
[32] = test system: Escherichia coli ATCC 25922
[33] = test system: Streptococcus sp. Group C
[34] = test system: Staphylococcus aureus ATCC 43300
Escherichia coli ESBL = test system: Escherichia coli ESBL
[35] = test system: Staphylococcus epidermidis
[36] = test system: Staphylococcus saprophyticus
[37] = test system: Escherichia coli ATCC 35218
[38] = test system: Streptococcus sp. Group G
[39] = test system: Staphylococcus haemolyticus
[40] = test system: Staphylococcus aureus ATCC BAA-44
[41] = test system: Acinetobacter baumannii ATCC 19606
Listeria ivanovii = test system: Listeria ivanovii
Saccharomyces cerevisiae = test system: Saccharomyces cerevisiae

MIC [29]: 4 µM (≈ 8.21 µg/mL) | MIC [15]: > 128 µM | MIC [17]: 16 µM (≈ 32.8 µg/mL) | MIC [30]: 16 µM (≈ 32.8 µg/mL) | MIC [24]: 8 µM (≈ 16.4 µg/mL) | MIC (Candida krusei ATCC 6258): 16 µM (≈ 32.8 µg/mL) | MIC [31]: 16 µM (≈ 32.8 µg/mL) | MIC [32]: > 128 µM
Compound: CC[C@H](C)[C@H](NC(=O)[C@H](C)NC(=O)CNC(=O)[C@H](Cc1ccccc1)NC(=O)[C@@H](NC(=O)[C@@H](N)CC(=O)O)[C@@H](C)CC)C(=O)N[C@@H](Cc1c[nH]c2ccccc12)C(=O)N1CCC[C@H]1C(=O)N[C@@H](CC(C)C)C(=O)N[C@@H](C)C(=O)N[C@@H](CC(C)C)C(=O)NCC(=O)N[C@@H](C)C(=O)N[C@@H](CC(C)C)C(=O)N[C@@H](CCCCN)C(=O)N[C@@H](CC(N)=O)C(=O)N[C@@H](CC(C)C)C(=O)N[C@H](C(=O)N[C@@H](CCCCN)C(N)=O)[C@@H](C)CC [DIFGAIWPLALGALKNLIK]

MIC [1]: 8.28 µM (≈ 16 µg/mL) | MIC [15]: 33.1 µM (≈ 64 µg/mL) | MIC [33]: 4.14 µM (≈ 8 µg/mL) | MIC [34]: 8.28 µM (≈ 16 µg/mL) | MIC (Pseudomonas aeruginosa): 66.2 µM (≈ 128 µg/mL) | MIC (Escherichia coli ESBL): 16.6 µM (≈ 32 µg/mL) | MIC [22]: 8.28 µM (≈ 16 µg/mL) | MIC [35]: 4.14 µM (≈ 8 µg/mL) | MIC (Escherichia coli): 8.28 µM (≈ 16 µg/mL) | MIC (Streptococcus pyogenes): 11.7 µM (≈ 22.6 µg/mL) | MIC [32]: 8.28 µM (≈ 16 µg/mL) | MIC [36]: ≥ 33.1 µM | MIC (Staphylococcus aureus): 11.7 µM (≈ 22.6 µg/mL) | MIC [37]: 8.28 µM (≈ 16 µg/mL) | MIC [38]: 11.7 µM (≈ 22.6 µg/mL)
Compound: NC(=O)[C@H](Cc1c[nH]c2ccccc12)NC(=O)[C@H](Cc1c[nH]c2ccccc12)NC(=O)[C@H](Cc1c[nH]c2ccccc12)NC(=O)[C@H](Cc1c[nH]c2ccccc12)NC(=O)[C@@H]1CCCN1C(=O)[C@H](CCCN=C(N)N)NC(=O)[C@@H]1CCCN1C(=O)[C@H](CCCN=C(N)N)NC(=O)[C@@H]1CCCN1C(=O)[C@H](CCCN=C(N)N)NC(=O)[C@@H]1CCCN1C(=O)[C@H](CCCN=C(N)N)NC(=O)[C@@H](N)CCCN=C(N)N [RRPRPRPRPWWWW]
MIC [39]: 4.14 µM (≈ 8 µg/mL)

MIC [1]: ≥ 50 µM | MIC [15]: > 100 µM | MIC [4]: > 100 µM | MIC [17]: ≥ 100 µM | MIC [40]: ≥ 100 µM | MIC [41]: > 100 µM | MIC (Listeria ivanovii): ≥ 100 µM | MIC [30]: ≥ 100 µM | MIC [24]: 100 µM (≈ 115 µg/mL) | MIC [32]: > 100 µM | MIC [26]: ≥ 100 µM | MIC (Saccharomyces cerevisiae): ≥ 100 µM
Compound: CC[C@H](C)[C@H](NC(=O)[C@H](CCCN=C(N)N)NC(=O)[C@H](CCCN=C(N)N)NC(=O)[C@H](CC(C)C)NC(=O)[C@H](Cc1ccccc1)NC(=O)[C@H](Cc1ccccc1)NC(=O)[C@@H](N)Cc1ccccc1)C(=O)N[C@@H](Cc1ccccc1)C(=O)O [FFFLRRIF]

Continued, compound first:

Compound: CC[C@H](C)[C@H](NC(=O)CNC(=O)[C@H](CCCN=C(N)N)NC(=O)[C@H](Cc1ccccc1)NC(=O)[C@H](CC(C)C)NC(=O)[C@H](Cc1cnc[nH]1)NC(=O)CNC(=O)[C@H](Cc1ccccc1)NC(=O)[C@@H](N)Cc1ccccc1)C(=O)N[C@H](C(=O)N[C@@H](CC(N)=O)C(=O)N[C@H](C(=O)NCC(=O)N[C@@H](CCCCN)C(=O)N[C@@H](Cc1cnc[nH]1)C(=O)N[C@H](C(=O)N[C@@H](Cc1cnc[nH]1)C(=O)NCC(=O)N[C@@H](CC(C)C)C(=O)N[C@@H](CC(C)C)C(=O)N[C@@H](CO)C(=O)NCC(N)=O)[C@@H](C)CC)C(C)C)[C@@H](C)CC [FFGHLFRGIINVGKHIHGLLSG]
MIC [1]: 2.5 µM (≈ 6.05 µg/mL) | MIC [2]: 1.25 µM (≈ 3.02 µg/mL) | MIC [3]: 5 µM (≈ 12.1 µg/mL) | MIC [4]: 25 µM (≈ 60.5 µg/mL) | MIC [5]: 5 µM (≈ 12.1 µg/mL) | MIC [6]: 1.25 µM (≈ 3.02 µg/mL) | MIC [7]: 5 µM (≈ 12.1 µg/mL) | MIC [8]: ≥ 50 µM | MIC [9]: ≥ 50 µM | MIC [10]: 25 µM (≈ 60.5 µg/mL) | MIC [11]: ≥ 50 µM | MIC [12]: 1.5 µM (≈ 3.63 µg/mL) | MIC [13]: 5 µM (≈ 12.1 µg/mL) | MIC [14]: 5 µM (≈ 12.1 µg/mL)

Compound: CC[C@H](C)[C@H](NC(=O)[C@H](CCCCN)NC(=O)[C@H](CCCCN)NC(=O)[C@H](CC(C)C)NC(=O)[C@H](CCCN=C(N)N)NC(=O)[C@H](CCCCN)NC(=O)[C@@H](N)CCCCN)C(=O)N[C@@H](Cc1ccccc1)C(=O)N[C@@H](CCCCN)C(=O)N[C@@H](CCCCN)C(=O)N1CCC[C@H]1C(=O)N[C@@H](CCSC)C(=O)N[C@H](C(=O)N[C@H](C(=O)NCC(=O)N[C@H](C(=O)N[C@H](C(=O)N[C@H](C(=O)N1CCC[C@H]1C(=O)N[C@@H](Cc1ccccc1)C(N)=O)[C@@H](C)CC)[C@@H](C)O)C(C)C)[C@@H](C)CC)C(C)C [KKRLKKIFKKPMVIGVTIPF]
MIC [15]: 27 µM (≈ 64 µg/mL) | MIC (Enterococcus faecalis): ≥ 54 µM | MIC [4]: > 54 µM | MIC [16]: 9.99 µM (≈ 23.7 µg/mL) | MIC [17]: ≥ 40 µM | MIC [18]: 0.843 µM (≈ 2 µg/mL) | MIC [19]: 5 µM (≈ 11.8 µg/mL) | MIC (Pseudomonas aeruginosa): 27 µM (≈ 64 µg/mL) | MIC [20]: 3.37 µM (≈ 8 µg/mL) | MIC [21]: 5 µM (≈ 11.8 µg/mL) | MIC [22]: > 54 µM | MIC [23]: 5 µM (≈ 11.8 µg/mL) | MIC [24]: 6.75 µM (≈ 16 µg/mL) | MIC (Candida krusei ATCC 6258): 5 µM (≈ 11.8 µg/mL) | MIC (Escherichia coli): 3.37 µM (≈ 8 µg/mL) | MIC (Streptococcus pyogenes): 3.37 µM (≈ 8 µg/mL) | MIC (Klebsiella pneumoniae): 3.37 µM (≈ 8 µg/mL) | MIC (Staphylococcus aureus): > 54 µM | MIC [25]: ≥ 40 µM | MIC (Acinetobacter baumannii): 1.69 µM (≈ 4 µg/mL) | MIC [26]: 0.843 µM (≈ 2 µg/mL) | MIC [27]: ≥ 40 µM | MIC [28]: 9.99 µM (≈ 23.7 µg/mL)
